Consider 13 compounds from patent US10973865B2, “Method of making solanaceae fruit extracts” (Provexis Natural Products Limited, priority 2008, dated 2021).

In brackets after ≈: the same amount, converted by molar mass.

Common to all, as to type: cell-based, human
Experiment [1] relates to platelet aggregation induced by collagen in platelet-rich plasma. The experiment is described as follows: Inhibition of collagen-induced platelet aggregation in platelet-rich plasma (aggregometer). The settings on record: amount in mg inhibiting aggregation by 50% in 1 mL platelet-rich plasma, collagen 5 mg/L, average of at least 3 IC50s; for IC50: Homo sapiens. As to the method: (§1) The experimental protocol described below was devised to determine the […] values of compounds isolated as described in 1.1.3. Crude bioassays to evaluate inhibition of platelet aggregation in vitro were performed on some crude extracts (data not shown) to help select fine fractions/compounds identified by HPLC for functional activity. This approach was considered necessary to avoid the need to assay each and ever compound (the would be thousands) in the fruit extracts.
(§2) An IC50 value represents the amount of a compound, in mg, required to inhibit by 50% the platelet aggregation induced under standardised conditions in 1 mL platelet-rich plasma, in comparison with control samples.
(§3) Blood for in vitro studies was collected from drug-free, healthy human volunteers, both male and female, aged 18-60 years, with normal platelet function. Subjects declared that they had not consumed drugs or supplements known to affect platelet function for a minimum of 10 days before providing a blood sample. Blood was collected after single venepuncture to an antecubital vein through siliconized needles into plastic citrated blood collection tubes (Sarstedt Monovettes, final concentration sodium citrate, 13 mmol/L). All blood was maintained at 37° C. from the time of blood sampling.
(§4) Platelet-rich plasma (PRP) was obtained by centrifugation of citrated blood for 15 minutes at 200×g, and was adjusted with platelet-poor plasma to a standard platelet number of 320±20×10^9/L prior to use. PRP was used for platelet function measurements within two hours.
(§5) The following agonists were used for platelet function measurements. Adenosine diphosphate (ADP), final concentration 10 μmol/L; collagen, final concentration 5 mg/L; arachidonic acid, final concentration 500 U/L (all from Helena Biosciences, Sunderland, UK); thrombin receptor-activating peptide (TRAP), final concentration 25 nmol/L (Sigma-Aldrich, Poole, UK). Agonists were prepared from stock solutions immediately before use, diluting into warmed physiological saline (0.9% NaCl).
(§6) Individual platelet inhibitors were prepared at a concentration of between 500 g/L and 100 g/L in either physiological saline, ultra-pure methanol or ultra-pure DMSO (Sigma-Aldrich, Poole, UK) and stored frozen until required. Stock solutions were then diluted with physiological saline immediately prior to use.
(§7) 450 μL PRP was incubated with 50 μL diluted inhibitor solution at 37° C. for 10 minutes, in low-retention epindorrfs. Inhibitor solutions were diluted such that the final concentration of methanol or DMSO in the PRP sample never exceeded 2%. Suitable control samples, containing 50 μL physiological saline matched for methanol or DMSO content as appropriate, were incubated simultaneously. For each inhibitor compound, 5 incubation concentrations were used; final concentrations of 0.05 mg/mL, 0.10 mg/mL, 1.00 mg/mL, 5.00 mg/mL and 10 mg/mL were used as standard.
(§8) After incubation with platelet inhibitors, PRP samples were transferred to glass cuvettes and the extent of aggregation induced by either ADP, collagen, TRAP or arachidonic acid was monitored over 10 minutes on a platelet aggregometer (PACKS 4, Helena Biosciences, Sunderland, UK). A control sample was run with each sample set. From the aggregation curves generated, the area under the curve was calculated for each PRP sample, and the inhibition of aggregation achieved at each inhibitor concentration was calculated by comparing the area under the curve for these PRP samples with that of the control sample. The inhibition of aggregation was expressed as % inhibition, compared to control, and from the 6 data points obtained per inhibitor compound, a dose-response curve was constructed. This curve was then used to predict the IC50 value for that inhibitor compound, as shown in 1.2, Results, and FIG. 1.
(§9) For each blood sample obtained, 6-point dose-response curves for 2 different inhibitory compounds could be generated. […]

Experiment [2] concerns platelet aggregation induced by arachidonic acid in platelet-rich plasma. The experiment is described as follows: Inhibition of arachidonic acid-induced platelet aggregation in platelet-rich plasma (aggregometer). The settings on record: amount in mg inhibiting aggregation by 50% in 1 mL platelet-rich plasma, arachidonic acid 500 U/L, average of at least 3 IC50s; for IC50: Homo sapiens. The method, then: as §1, §2, §3, §4, §5, §6, §7, §8, §9

In experiment [3] the test system is platelet aggregation induced by ADP in platelet-rich plasma. The experiment is described as follows: Inhibition of ADP-induced platelet aggregation in platelet-rich plasma (aggregometer). The settings on record: amount in mg inhibiting aggregation by 50% in 1 mL platelet-rich plasma, ADP 10 μmol/L, average of at least 3 IC50s; for IC50: Homo sapiens. As to the method:
as §1, §2, §3, §4, §5, §6, §7, §8, §9

For experiment [4], the system named is platelet aggregation induced by thrombin receptor-activating peptide (TRAP) in platelet-rich plasma. As to the kind of experiment: Inhibition of TRAP-induced platelet aggregation in platelet-rich plasma (aggregometer). The settings on record: amount in mg inhibiting aggregation by 50% in 1 mL platelet-rich plasma, TRAP 25 nmol/L, average of at least 3 IC50s; for IC50: Homo sapiens. The method, then:
as §1, §2, §3, §4, §5, §6, §7, §8, §9

By IC50 is commonly meant the concentration that gives 50% inhibition. High values mean weaker potency in that assay, low ones greater potency in that assay. With `COc1cc(/C=C/C(=O)O)ccc1O` [Compound 21, Ferulic acid], the IC50 was determined as 13.9 mg/mL (≈ 71.6 mM) in experiment [1], 9.94 mg/mL (≈ 51.2 mM) in experiment [2], 18.7 mg/mL (≈ 96.1 mM) in experiment [3] and 14.7 mg/mL (≈ 75.4 mM) in experiment [4].
For `Nc1ccn([C@@H]2O[C@H](CO)[C@@H](O)[C@H]2O)c(=O)n1` [Compound 1, Cytidine], the IC50 in experiment [1] was determined as 10.7 mg/mL (≈ 43.8 mM); in experiment [2], 39 mg/mL (≈ 160 mM); in experiment [3], 2.42 mg/mL (≈ 9.95 mM); in experiment [4] it was 39 mg/mL (≈ 160 mM).
For `O=C1C[C@@H](c2ccc(O)cc2)Oc2cc(O)cc(O)c21` [Compound 32, Naringenin], the figures for the IC50 in experiment [2] and in experiment [4] were 10.4 mg/mL (≈ 38.2 mM) and 33.2 mg/mL (≈ 122 mM), respectively.
On to `O=C(O)/C=C/c1ccc(O)cc1` [Compound 19, p-coumaric acid], for which the IC50 came out at 14.6 mg/mL (≈ 89.1 mM) in experiment [1], 10.2 mg/mL (≈ 62 mM) in experiment [2], 13.2 mg/mL (≈ 80.5 mM) in experiment [3] and 12.8 mg/mL (≈ 78.1 mM) in experiment [4].
As for `C[C@@H]1O[C@@H](OC[C@H]2O[C@@H](Oc3c(-c4ccc(O)c(O)c4)oc4cc(O)cc(O)c4c3=O)[C@H](O)[C@@H](O)[C@@H]2O)[C@H](O)[C@H](O)[C@H]1O` [Compound 27, Rutin], the IC50 in experiment [1] is 32.2 mg/mL (≈ 52.7 mM); in experiment [3] it was 35.2 mg/mL (≈ 57.7 mM); in experiment [4], 8.96 mg/mL (≈ 14.7 mM).
For `O=c1c(O)c(-c2ccc(O)c(O)c2)oc2cc(O)cc(O)c12` [Compound 30, Quercetin], the values for the IC50 in experiment [2] and in experiment [4] were 3.66 mg/mL (≈ 12.1 mM) and 19.7 mg/mL (≈ 65 mM), respectively.
In the case of `O=c1ccn([C@@H]2O[C@H](CO)[C@@H](O)[C@H]2O)c(=O)[nH]1` [Compound 3, Uridine], the IC50 in experiment [1] worked out at 16 mg/mL (≈ 65.5 mM); in experiment [3] it was 6.51 mg/mL (≈ 26.7 mM).
For `Nc1nc2c(ncn2[C@@H]2O[C@H](CO)[C@@H](O)[C@H]2O)c(=O)[nH]1` [Compound 4, Guanosine], in experiment [4], the IC50 is 26.1 mg/mL (≈ 92 mM).
Regarding Adenosine 3′-monophospate [Compound 5], the “IC50 Collagen” value in experiment [1] was 0.28 mg. Moreover, the “IC50 AA” value in experiment [2] stood at 2.41 mg. Further, in experiment [3], the “IC50 ADP” value is reported as 0.12 mg. The “IC50 TRAP” value in experiment [4] is 24.51 mg.
As for `O=c1c(O)c(-c2ccc(O)cc2)oc2cc(O)cc(O)c12` [Compound 31, Kaempferol], the results for the IC50 in experiment [2] and in experiment [4] were 5.18 mg/mL (≈ 18.1 mM) and 26.2 mg/mL (≈ 91.5 mM), respectively.
In the case of `O=C(/C=C/c1ccc(O)c(O)c1)O[C@@H]1C[C@](O)(C(=O)O)C[C@@H](O)[C@H]1O` [Compound 14, Chlorogenic acid], in experiment [1], the “IC50 Collagen” value is recorded as 10.11 mg. Moreover, the “IC50 AA” value in experiment [2] worked out at 0.77 mg. Moreover, the “IC50 ADP” value in experiment [3] is given as 10.08 mg. Besides, the “IC50 TRAP” value in experiment [4] came to 1.1 mg.
The matching figures for `O=C(O)c1ccccc1` [Compound 20, Benzoic acid]: 17.74 mg, 15.45 mg, 25.11 mg and 18.19 mg.
Take `O=C(O)/C=C/c1ccc(O)c(O)c1` [Compound 18, Caffeic acid]: the IC50 was determined as 11.4 mg/mL (≈ 63.1 mM) in experiment [1], 7.33 mg/mL (≈ 40.7 mM) in experiment [2], 19 mg/mL (≈ 105 mM) in experiment [3] and 8.03 mg/mL (≈ 44.6 mM) in experiment [4].
